Measurements: US20230103237A1, “BIODEGRADABLE PARTICLES AND BIODEGRADABLE PARTICLES IN CONTACT WITH ACTIVE INGREDIENTS” (The United States of America, as represented by the …, priority 2021, published 2023)

Tested on: Culex quinquefasciatus mosquito larvae
Assay: whole plant or invertebrate
Format: in vivo
Excerpt: FIG. 5 depicts a graph of the percentage of mosquito larvae death as a function of time for the different zein-silver particle solutions. This graph includes the results from five (5) trials with twenty (20) 3rd instar or 4th instar larvae. The Y axis presents the percentage death (Lethal %). The X axis presents the time after treatment in hours. Circles represent 100 ppm zein-silver particles; triangles represent 1 ppm zein-silver particles; diamonds represent 0.1 ppm zein-silver particles.
The larvicidal effect of the zein-silver particles prepared above was tested on Culex quinquefasciatus mosquito species.

With `[BH4-].[Na+]` [sodium borohydride] the killing of larvae (0.2 ppm, after 90 hours) was 8%.
Compound `OCC(O)CO` [Glycerol, glycerol] has a mortality at 0.2 ppm (Culex quinquefasciatus, 40 h, read-out: Larval Mortality (%)) of 0%.
